Values joined by “and” are separate entries in the source; they are usually repeats but may differ in a detail not shown here. Identical values can stand only once.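 96-well plates; 48 h exposure; 5 concentrations. Endpoints by linear interpolation between flanking doses. Not reached: highest tested concentration assigned. GI50: concentration for 50% inhibition of growth. TGI: concentration producing complete growth inhibition.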

In the first assay the test system is OVCAR-8 ovarian. Put plainly: NCI anticancer screen, dose series, 48 h.
The molecule `C=C1c2nc3ccccc3n2C=C(c2ccccc2)N1c1ccc([N+](=O)[O-])cc1` yielded a TGI of 43.4 µM.
Consider `O=c1[nH]cc(N=Cc2cc(Cl)cc(Cl)c2O)c(=O)[nH]1`, for which the TGI was greater than 100 µM.
With `Cc1c2cnccc2c(C)c2c1c1ccccc1n2CCCN`, the GI50 was 0.205 µM; the TGI is 1.41 µM and 1.22 µM.
In the case of `Oc1cc2c3c(c1)c1cc4c(cc1c[n+]3CC2)OCO4`, the TGI worked out at 14.1 µM.
Same read-out and setting: under `c1ccc(N=C2SC3=Nc4cccc5cccc(c45)N3C2=Nc2ccccc2)cc1` stands greater than 100 µM.
The same measure, in the same setting: under `CN1CCN([C@H]2C[C@H]3[C@@H]4CC=C5C[C@@H](O)CC[C@]5(C)[C@H]4CC[C@]3(C)C2=O)CC1` stands greater than 100 µM; under `CCOC(=O)N1CCC2(CC1)C[C@](C)(C(C)=O)C(C)O2` (stereo partly drawn), greater than 100 µM; under `Oc1cccc2c(Cl)ccnc12`, greater than 100 µM.
The same measure, in the same setting: under `COc1cc2c(cc1OC)C(c1ccccc1CCCCl)=NCC2` stands greater than 100 µM.
Consider `CC(C)c1ccc(/C=C2/C=C(c3ccc4ccccc4c3)OC2=O)cc1`, for which the TGI was greater than 100 µM.
The same measure, in the same setting: under `COc1cc(/C=C/C(=N\NS(=O)(=O)c2ccc(C)cc2)c2sc(NNC(C)=O)nc2C)ccc1O` stands greater than 100 µM.
Still for that read-out and setting: under `CCC1(O)CC2CC(=O)OC2C1O` (stereo not drawn) stands greater than 100 µM; under `CCOC(=O)Nn1c(C)nnc1-c1ccccc1`, greater than 100 µM.
`COc1ccc(/C=C2\CCC(C)C3=C2NC(=S)NC3c2ccc(OC)c(OC)c2)cc1OC` (stereo not drawn) yielded a TGI greater than 90.2 µM.
Same read-out and setting: under `O=[N+]([O-])/C(C(Cl)=C(Cl)Cl)=C(\SCc1ccccc1)N1CCCCC1` stands 54.5 µM; under `CC(C)/C(Cl)=N\OC(=O)Nc1ccc(S(N)(=O)=O)cc1`, 32 µM.
Still for that read-out and setting: under `N=c1n(C(=O)N2CCCC2)c2cc(Cl)ccc2n1C1=NCCN1` stands greater than 100 µM; under `CCc1ccc(CCN2CCCCC2)nc1`, greater than 100 µM.

Another assay relates to CAKI-1 renal. The assay is described as follows: NCI anticancer screen, dose series, 48 h.
Consider `C=C1c2nc3ccccc3n2C=C(c2ccccc2)N1c1ccc([N+](=O)[O-])cc1`, for which the TGI amounted to 24 µM.
Consider `O=c1[nH]cc(N=Cc2cc(Cl)cc(Cl)c2O)c(=O)[nH]1`, for which the TGI came out at 57.7 µM.
As to `Cc1c2cnccc2c(C)c2c1c1ccccc1n2CCCN`, the GI50 was 0.779 µM and 0.295 µM; the TGI was 1.9 µM and 1.41 µM.
Molecule `Oc1cc2c3c(c1)c1cc4c(cc1c[n+]3CC2)OCO4` had a TGI greater than 50.3 µM.
On the same count and under the same terms, under `c1ccc(N=C2SC3=Nc4cccc5cccc(c45)N3C2=Nc2ccccc2)cc1` stands greater than 100 µM; under `CN1CCN([C@H]2C[C@H]3[C@@H]4CC=C5C[C@@H](O)CC[C@]5(C)[C@H]4CC[C@]3(C)C2=O)CC1`, greater than 100 µM; under `CCOC(=O)N1CCC2(CC1)C[C@](C)(C(C)=O)C(C)O2` (stereo partly drawn), greater than 100 µM.
On the same count and under the same terms, under `Oc1cccc2c(Cl)ccnc12` stands greater than 58.5 µM; under `COc1cc2c(cc1OC)C(c1ccccc1CCCCl)=NCC2`, greater than 100 µM; under `CC(C)c1ccc(/C=C2/C=C(c3ccc4ccccc4c3)OC2=O)cc1`, greater than 100 µM.
On the same count and under the same terms, under `COc1cc(/C=C/C(=N\NS(=O)(=O)c2ccc(C)cc2)c2sc(NNC(C)=O)nc2C)ccc1O` stands greater than 100 µM; under `CCC1(O)CC2CC(=O)OC2C1O` (stereo not drawn), greater than 100 µM.
On to `CCOC(=O)Nn1c(C)nnc1-c1ccccc1`, for which the TGI is greater than 100 µM.
On the same count and under the same terms, under `COc1ccc(/C=C2\CCC(C)C3=C2NC(=S)NC3c2ccc(OC)c(OC)c2)cc1OC` (stereo not drawn) stands greater than 31.6 µM.
`O=[N+]([O-])/C(C(Cl)=C(Cl)Cl)=C(\SCc1ccccc1)N1CCCCC1` yielded a TGI greater than 100 µM.
In turn, `CC(C)/C(Cl)=N\OC(=O)Nc1ccc(S(N)(=O)=O)cc1` registered a TGI of 31.1 µM.
Same read-out and setting: under `N=c1n(C(=O)N2CCCC2)c2cc(Cl)ccc2n1C1=NCCN1` stands greater than 100 µM.
The molecule `CCc1ccc(CCN2CCCCC2)nc1` returned a TGI greater than 100 µM.

The subject of another assay is M14 melanoma. The assay is described as follows: NCI anticancer screen, dose series, 48 h.
`C=C1c2nc3ccccc3n2C=C(c2ccccc2)N1c1ccc([N+](=O)[O-])cc1` yielded a TGI greater than 60.4 µM.
In turn, `O=c1[nH]cc(N=Cc2cc(Cl)cc(Cl)c2O)c(=O)[nH]1` came in with a TGI of 47.8 µM.
For the molecule `Cc1c2cnccc2c(C)c2c1c1ccccc1n2CCCN`, the TGI stood at 0.91 µM.
In turn, `Oc1cc2c3c(c1)c1cc4c(cc1c[n+]3CC2)OCO4` displayed a TGI greater than 100 µM.
`c1ccc(N=C2SC3=Nc4cccc5cccc(c45)N3C2=Nc2ccccc2)cc1` had a TGI greater than 100 µM.
Turning to `CN1CCN([C@H]2C[C@H]3[C@@H]4CC=C5C[C@@H](O)CC[C@]5(C)[C@H]4CC[C@]3(C)C2=O)CC1`, the TGI is greater than 100 µM.
Same read-out and setting: under `CCOC(=O)N1CCC2(CC1)C[C@](C)(C(C)=O)C(C)O2` (stereo partly drawn) stands greater than 100 µM.
The molecule `Oc1cccc2c(Cl)ccnc12` came in with a TGI of 13.4 µM.
Same read-out and setting: under `COc1cc2c(cc1OC)C(c1ccccc1CCCCl)=NCC2` stands greater than 100 µM; under `CC(C)c1ccc(/C=C2/C=C(c3ccc4ccccc4c3)OC2=O)cc1`, greater than 100 µM.
For the molecule `COc1cc(/C=C/C(=N\NS(=O)(=O)c2ccc(C)cc2)c2sc(NNC(C)=O)nc2C)ccc1O`, the TGI is greater than 100 µM.
Still for that read-out and setting: under `CCC1(O)CC2CC(=O)OC2C1O` (stereo not drawn) stands greater than 100 µM.
`CCOC(=O)Nn1c(C)nnc1-c1ccccc1`: the TGI was greater than 100 µM.
Molecule `COc1ccc(/C=C2\CCC(C)C3=C2NC(=S)NC3c2ccc(OC)c(OC)c2)cc1OC` (stereo not drawn) had a TGI greater than 31.6 µM.
On to `O=[N+]([O-])/C(C(Cl)=C(Cl)Cl)=C(\SCc1ccccc1)N1CCCCC1`, for which the TGI amounted to 45.6 µM.
Still for that read-out and setting: under `CC(C)/C(Cl)=N\OC(=O)Nc1ccc(S(N)(=O)=O)cc1` stands 22.1 µM; under `N=c1n(C(=O)N2CCCC2)c2cc(Cl)ccc2n1C1=NCCN1`, greater than 100 µM.
Molecule `CCc1ccc(CCN2CCCCC2)nc1` had a TGI greater than 100 µM.

The next assay concerns IGROV1 ovarian. Put plainly: NCI anticancer screen, dose series, 48 h.
`C=C1c2nc3ccccc3n2C=C(c2ccccc2)N1c1ccc([N+](=O)[O-])cc1` had a TGI of 27 µM.
Take `O=c1[nH]cc(N=Cc2cc(Cl)cc(Cl)c2O)c(=O)[nH]1`: the TGI came to 50.1 µM.
Consider `Cc1c2cnccc2c(C)c2c1c1ccccc1n2CCCN`, for which the GI50 was 0.198 µM; the TGI is 1.74 µM and 0.973 µM.
For the molecule `Oc1cc2c3c(c1)c1cc4c(cc1c[n+]3CC2)OCO4`, the TGI was greater than 39.8 µM.
On the same count and under the same terms, under `c1ccc(N=C2SC3=Nc4cccc5cccc(c45)N3C2=Nc2ccccc2)cc1` stands greater than 100 µM; under `CN1CCN([C@H]2C[C@H]3[C@@H]4CC=C5C[C@@H](O)CC[C@]5(C)[C@H]4CC[C@]3(C)C2=O)CC1`, greater than 100 µM.
With `CCOC(=O)N1CCC2(CC1)C[C@](C)(C(C)=O)C(C)O2` (stereo partly drawn), the TGI is greater than 100 µM.
Regarding `Oc1cccc2c(Cl)ccnc12`, the TGI is greater than 29.7 µM.
`COc1cc2c(cc1OC)C(c1ccccc1CCCCl)=NCC2`: the TGI is greater than 100 µM.
In the case of `CC(C)c1ccc(/C=C2/C=C(c3ccc4ccccc4c3)OC2=O)cc1`, the TGI is greater than 100 µM.
Regarding `COc1cc(/C=C/C(=N\NS(=O)(=O)c2ccc(C)cc2)c2sc(NNC(C)=O)nc2C)ccc1O`, the TGI was greater than 100 µM.
The same measure, in the same setting: under `CCC1(O)CC2CC(=O)OC2C1O` (stereo not drawn) stands greater than 100 µM; under `CCOC(=O)Nn1c(C)nnc1-c1ccccc1`, greater than 100 µM.
On the same count and under the same terms, under `COc1ccc(/C=C2\CCC(C)C3=C2NC(=S)NC3c2ccc(OC)c(OC)c2)cc1OC` (stereo not drawn) stands greater than 31.6 µM; under `O=[N+]([O-])/C(C(Cl)=C(Cl)Cl)=C(\SCc1ccccc1)N1CCCCC1`, 57.1 µM.
`CC(C)/C(Cl)=N\OC(=O)Nc1ccc(S(N)(=O)=O)cc1` yielded a TGI of 33.9 µM.
On the same count and under the same terms, under `N=c1n(C(=O)N2CCCC2)c2cc(Cl)ccc2n1C1=NCCN1` stands greater than 100 µM; under `CCc1ccc(CCN2CCCCC2)nc1`, greater than 100 µM.

For the next assay, the system named is MCF7 breast. Put plainly: NCI anticancer screen, dose series, 48 h.
The molecule `C=C1c2nc3ccccc3n2C=C(c2ccccc2)N1c1ccc([N+](=O)[O-])cc1` registered a TGI greater than 37.9 µM.
On the same count and under the same terms, under `O=c1[nH]cc(N=Cc2cc(Cl)cc(Cl)c2O)c(=O)[nH]1` stands greater than 100 µM.
With `Cc1c2cnccc2c(C)c2c1c1ccccc1n2CCCN`, the GI50 is 0.0474 µM; the TGI is 1.19 µM and 0.277 µM.
The molecule `Oc1cc2c3c(c1)c1cc4c(cc1c[n+]3CC2)OCO4` gave a TGI greater than 100 µM.
Still for that read-out and setting: under `c1ccc(N=C2SC3=Nc4cccc5cccc(c45)N3C2=Nc2ccccc2)cc1` stands greater than 100 µM.
Turning to `CN1CCN([C@H]2C[C@H]3[C@@H]4CC=C5C[C@@H](O)CC[C@]5(C)[C@H]4CC[C@]3(C)C2=O)CC1`, the TGI is greater than 100 µM.
Still for that read-out and setting: under `CCOC(=O)N1CCC2(CC1)C[C@](C)(C(C)=O)C(C)O2` (stereo partly drawn) stands greater than 100 µM; under `Oc1cccc2c(Cl)ccnc12`, greater than 100 µM; under `COc1cc2c(cc1OC)C(c1ccccc1CCCCl)=NCC2`, greater than 100 µM.
Same read-out and setting: under `CC(C)c1ccc(/C=C2/C=C(c3ccc4ccccc4c3)OC2=O)cc1` stands greater than 100 µM; under `COc1cc(/C=C/C(=N\NS(=O)(=O)c2ccc(C)cc2)c2sc(NNC(C)=O)nc2C)ccc1O`, greater than 100 µM; under `CCC1(O)CC2CC(=O)OC2C1O` (stereo not drawn), greater than 100 µM.
The same measure, in the same setting: under `CCOC(=O)Nn1c(C)nnc1-c1ccccc1` stands greater than 100 µM; under `COc1ccc(/C=C2\CCC(C)C3=C2NC(=S)NC3c2ccc(OC)c(OC)c2)cc1OC` (stereo not drawn), greater than 31.6 µM; under `O=[N+]([O-])/C(C(Cl)=C(Cl)Cl)=C(\SCc1ccccc1)N1CCCCC1`, 32.2 µM.
As to `CC(C)/C(Cl)=N\OC(=O)Nc1ccc(S(N)(=O)=O)cc1`, the TGI came to 27.7 µM.
Consider `N=c1n(C(=O)N2CCCC2)c2cc(Cl)ccc2n1C1=NCCN1`, for which the TGI is greater than 100 µM.
The same measure, in the same setting: under `CCc1ccc(CCN2CCCCC2)nc1` stands greater than 100 µM.

Another assay relates to A498 renal. The assay is described as follows: NCI anticancer screen, dose series, 48 h.
`C=C1c2nc3ccccc3n2C=C(c2ccccc2)N1c1ccc([N+](=O)[O-])cc1` had a TGI of 42 µM.
The molecule `O=c1[nH]cc(N=Cc2cc(Cl)cc(Cl)c2O)c(=O)[nH]1` yielded a TGI greater than 100 µM.
Turning to `Cc1c2cnccc2c(C)c2c1c1ccccc1n2CCCN`, the GI50 is 0.468 µM; the TGI was 1.62 µM and 1.15 µM.
In the case of `Oc1cc2c3c(c1)c1cc4c(cc1c[n+]3CC2)OCO4`, the TGI is greater than 74.7 µM.
For the molecule `c1ccc(N=C2SC3=Nc4cccc5cccc(c45)N3C2=Nc2ccccc2)cc1`, the TGI is greater than 100 µM.
On the same count and under the same terms, under `CN1CCN([C@H]2C[C@H]3[C@@H]4CC=C5C[C@@H](O)CC[C@]5(C)[C@H]4CC[C@]3(C)C2=O)CC1` stands greater than 100 µM; under `CCOC(=O)N1CCC2(CC1)C[C@](C)(C(C)=O)C(C)O2` (stereo partly drawn), greater than 100 µM.
Same read-out and setting: under `Oc1cccc2c(Cl)ccnc12` stands greater than 43.5 µM.

Values taken from PubChem BioAssay (NCI).
